In brackets after ≈: the same amount, converted by molar mass. Where two headings read alike, the source gives them in different places.
Experiments:
Assay type in all cases: cell-based
Spiroplasma citri = experiment: Activity against Spiroplasma citri (MIC); details: for MIC with Cu / MIC: Table III; for MIC with Cu: media containing 50 μg/ml Cu^2+; for MIC S.Citri (with Cu): Table IVb, with Cu (50 μg/ml Cu^2+); for MIC: without added Cu
Source text: (§1) The following tables show some activities--expressed as minimum inhibiting concentration (MIC)--of the prepared compounds against various micro-organisms. The compounds are identified by reference to the Example in which they are described. When more than one compound is mentioned in an Example, they are distinguished by a number between parentheses, corresponding to their order of occurrence, for instance: VI (2) refers to the second compound prepared according to Example VI. The term "with Cu" refers to tests conducted in media containing 50 μg/ml Cu^2+.
(§2) The activities of the following compounds, not mentioned in the Examples, were also measured.

Mycoplasma gallisepticum = experiment: Activity against Mycoplasma gallisepticum (minimum inhibiting concentration); details: for MIC with Cu / MIC: Table I; for MIC with Cu: media containing 50 μg/ml Cu^2+; for MIC: without added Cu
Source text: as §1, §2

M. synoviae = experiment: Activity against other Mycoplasma species: M. synoviae (MIC); details: Table II, with Cu (50 μg/ml Cu^2+)
Source text: as §1

M. gallisepticum K514 = experiment: Development of resistance of M. gallisepticum K514 in the presence of copper ions (repeated MIC determinations); details: 100 μg/ml Cu^2+; procedure repeated 12 times
Description: It was investigated whether M. gallisepticum K514 develops a resistance against the compounds of Examples IX (1), IX (2), VIIIe and XIIb in the presence of copper ions. The MIC's in the presence of 100 μg/ml Cu^2+ were determined in the usual way. The test tubes containing the highest concentration of each compound in which a considerable growth of micro-organism still occurred, were used for inoculation in a next determination. […] Consequently, no resistance is developed.

M. meleagridis = experiment: Activity against other Mycoplasma species: M. meleagridis (MIC); details: Table II, with Cu (50 μg/ml Cu^2+)
Source text: as §1

M. suipneumoniae = experiment: Activity against other Mycoplasma species: M. suipneumoniae (MIC); details: Table II, copper complexes, head 'with Cu' possibly not covering these columns
Source text: as §1

[1] = system: M. Hyorhinis (tylosin resistent); experiment: Activity against other Mycoplasma species: M. Hyorhinis (tylosin resistent) (MIC); details: Table II, copper complexes, head 'with Cu' possibly not covering these columns
Source text: as §1

M. hyorhinis = experiment: Activity against other Mycoplasma species: M. hyorhinis (MIC); details: Table II, copper complexes, head 'with Cu' possibly not covering these columns
Source text: as §1

[2] = Mycoplasmoides gallisepticum, read-out: MIC

| SMILES | MIC with Cu (Spiroplasma citri) [µg/mL] | MIC with Cu (Mycoplasma gallisepticum) [µg/mL] | MIC (Mycoplasma gallisepticum; [2]) [µg/mL] | also measured |
| --- | --- | --- | --- | --- |
| CCc1nc(-c2ccccn2)cc2ccccc12 [XIIId, 1-ethyl-3-(2-pyridyl)isoquinoline] | 0.2 | 0.06 | – | – |
| Cc1nc(-c2ccccn2)cc2ccccc12 [XIIc (3), 1-methyl-3-(2-pyridyl)isoquinoline] | 0.2 | 0.06 | 6 (≈ 27.2 µM) | – |
| Nc1nc(-c2ccccn2)cc2ccccc12 [XIIc (1), 1-amino-3-(2-pyridyl)isoquinoline] | 0.2 | 0.4 | > 100 | – |
| Nc1nc(-c2ccccn2)cc2c(Cl)cccc12 [VIIIh] | 0.4 | 0.05 | > 100 | – |
| CCCCCCCCCCc1ccc2c(N)nc(-c3ccccn3)cc2c1 [VIIIg] | 0.8 | 0.06 | 100 (≈ 277 µM) | – |
| CCCCCCCCCCCc1c(-c2ccccn2)ncc2ccccc12 [D] | – | – | – | MIC S.Citri (with Cu) (Spiroplasma citri): 0.8 µg/mL (≈ 2.22 µM) |
| Cc1cccc(-c2cc3ccccc3c(C)n2)n1 [XIIb, 1-methyl-3(6-methyl-2-pyridyl)isoquinoline] | 0.05 | 0.03 | – | MIC with Cu (M. synoviae): 0.1 µg/mL; Resistance development: change of MIC (M. gallisepticum K514): without a significant increase of the MIC's; MIC with Cu (M. meleagridis): 0.05 µg/mL |
| CCc1cccc(-c2cc3ccccc3c(N)n2)n1.Cl [IX (2), 1-amino-3-(6-ethyl-2-pyridyl) isoquinoline hydrochloride] | 0.2 | 0.02 | – | MIC with Cu (M. synoviae): 0.05 µg/mL; Resistance development: change of MIC (M. gallisepticum K514): without a significant increase of the MIC's; MIC with Cu (M. meleagridis): 0.013 µg/mL |
| Cc1cccc(-c2cc3ccccc3c(N)n2)n1.Cl [IX (1), 1-amino-3-(6-methyl-2-pyridyl)-isoquinoline hydrochloride] | 0.4 | 0.03 | 100 | MIC with Cu (M. synoviae): 0.025 µg/mL; Resistance development: change of MIC (M. gallisepticum K514): without a significant increase of the MIC's; MIC with Cu (M. meleagridis): 0.025 µg/mL |
| Cc1cccc2cc(-c3ccccn3)nc(N)c12 [VIIIe] | 0.1 | 0.06 | 100 (≈ 425 µM) | MIC with Cu (M. synoviae): 0.1 µg/mL; Resistance development: change of MIC (M. gallisepticum K514): without a significant increase of the MIC's; MIC with Cu (M. meleagridis): 0.05 µg/mL |
| Cc1ccc2ccc3ccc(C)nc3c2n1 [A] | – | – | – | MIC S.Citri (with Cu) (Spiroplasma citri): 0.03 µg/mL (≈ 0.144 µM) |
| COc1ccc2ccc3ccc(OC)nc3c2n1 [H] | – | – | – | MIC S.Citri (with Cu) (Spiroplasma citri): 1.5 µg/mL (≈ 6.24 µM) |
| Cc1cccc(-c2cc3ccccc3c(N)n2)n1.Cc1cccc(-c2cc3ccccc3c(N)n2)n1.O=[N+]([O-])[O-].[Cu+] [IIf, Bis[1-amino-3-(6-methyl-2-pyridyl)isoquinoline]cuprous nitrate] | – | 0.03 | – | MIC (Spiroplasma citri): 25 µg/mL |
| CCc1cccc2cc(-c3ccccn3)nc(N)c12 [VIIIf] | 0.4 | 0.05 | > 100 | – |
| Cn1ccnc1-c1cc2ccccc2c(N)n1 [XVa, 1-amino-3-(1-methyl-1H-imidazole-2-yl)isoquinoline] | – | 1.5 | > 100 | – |
| c1ccc(-c2nc(-c3ccccn3)cc3ccccc23)cc1 [XIVb, 1-phenyl-3-(2-pyridyl)isoquinoline] | – | 0.2 | – | – |
| Cc1ccc2ccc3ccc(C)nc3c2n1.Cc1ccc2ccc3ccc(C)nc3c2n1.O.O=[N+]([O-])[O-].O=[N+]([O-])[O-].[Cu+2] [VI (1), bis(2,9-dimethyl-1,10phenanthroline)cupric nitrate monohydrate] | – | – | – | MIC (Spiroplasma citri): 50 µg/mL; MIC (M. suipneumoniae): 3 µg/mL; MIC [1]: 1 µg/mL; MIC (Mycoplasma gallisepticum): 0.4 µg/mL; MIC (M. hyorhinis): 3 µg/mL |
| C=Cn1ccnc1-c1nc(N)c2ccccc2n1 [Example XVIIIa, 4-amino-2-(1-ethenyl-1H-imidazole-2-yl)quinazoline] | – | 0.2 | > 100 | – |
| Cn1ccnc1-c1cc2ccccc2c(N)n1.Cn1ccnc1-c1cc2ccccc2c(N)n1.O=[N+]([O-])[O-].[Cu+] [XVb (1), Bis[1-amino-3-(1-methyl-1H-imidazole-2-yl)isoquinoline]cuprous nitrate] | – | 0.8 | – | MIC (Mycoplasma gallisepticum): 12.5 µg/mL |
| Clc1ccc2nc(-c3ccccn3)ncc2c1 [C] | – | – | – | MIC M. gall. with Cu (Mycoplasma gallisepticum; Table IVb, with Cu (50 μg/ml Cu^2+)): 0.8 µg/mL |
| C=Cn1ccnc1-c1cc2ccccc2c(N)n1.C=Cn1ccnc1-c1cc2ccccc2c(N)n1.O=[N+]([O-])[O-].O=[N+]([O-])[O-].[Cu+2] [XVIId (3), Bis[1-amino-3-(1-ethenyl-1H-imidazole-2-yl)isoquinoline]cupric nitrate] | – | 0.2 | – | MIC (Mycoplasma gallisepticum): 12.5 µg/mL |
